According to PubChem BioAssay AID328 (DTP/NCI, 2004):
Where “and” joins values, the source holds several entries; their conditions need not be identical. Equal values may be shown once. Toxic doses and inconclusive results are not listed.

Tested on: BDF1 mice, P388 leukemia ip, median survival T/C
Test: NCI In Vivo Anticancer Drug Screen. Data for tumor model P388 Leukemia (intraperitoneal) in B6D2F1 (BDF1) mice
Conditions: endpoint: median survival time, higher = longer survival
Procedure, shortened: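 Antitumour effect was judged in vivo: survival in drug-treated mice, normalised to that of vehicle-dosed controls, gives the reported T/C.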

[1] = dose: 200.0 mg/kg/injection, schedule: Q04DX003 (ip), vehicle: saline with Tween-80
[2] = dose: 100.0 mg/kg/injection, schedule: Q04DX003 (ip), vehicle: saline with Tween-80
[3] = dose: 400.0 mg/kg/injection, schedule: Q04DX003 (ip), vehicle: saline with Tween-80

`CCCCCCCCCCCCCC(=O)CC` was tested. Which T/C (dose: 85.0 mg/kg/injection, schedule: Q04DX003 (ip), vehicle: saline with Tween-80) did it give?
The T/C was 91 % of control.

What about the T/C (dose: 135.0 mg/kg/injection, schedule: Q04DX003 (ip), vehicle: saline with Tween-80) of the same compound?
The T/C was 91 % of control.

What about the T/C [1] of the same compound?
Its T/C is 87 % of control.

With `CCc1ccc(NC(=O)c2ccccc2C(=O)O)cc1` as the compound, how does the T/C [2] read?
Its T/C is 122 % of control.

And the T/C [1]?
Its T/C is 104 % of control.

What about the T/C [3] of the same compound?
Its T/C is 109 % of control.

What does the source list for `N=C(N=C(N)N)N1CCOCC1`?
T/C (dose: 50.0 mg/kg/injection, schedule: Q04DX003 (ip), vehicle: saline with Tween-80): 110 % of control; T/C [2]: 115 % of control; T/C [1]: 105 % of control

`CCOC(=O)C(C#N)(CC)C1=CCCCC1` (configuration not stated) was tested. Which T/C (dose: 100.0 mg/kg/injection, schedule: Q01DX009 (ip), vehicle: Klucel (hydroxypropylcellulose) (HPC)) did it give?
The T/C was 108 % of control.

And the T/C (dose: 100.0 mg/kg/injection, schedule: Q04DX003 (ip), vehicle: Klucel (hydroxypropylcellulose) (HPC))?
Its T/C is 109 % of control.

What about the T/C (dose: 200.0 mg/kg/injection, schedule: Q01DX009 (ip), vehicle: Klucel (hydroxypropylcellulose) (HPC)) of the same compound?
The T/C was 100 % of control.

What about the T/C (dose: 200.0 mg/kg/injection, schedule: Q04DX003 (ip), vehicle: Klucel (hydroxypropylcellulose) (HPC)) of the same compound?
The T/C was 100 % of control.

And the T/C (dose: 400.0 mg/kg/injection, schedule: Q01DX009 (ip), vehicle: Klucel (hydroxypropylcellulose) (HPC))?
Its T/C is 104 % of control.

What about the T/C (dose: 400.0 mg/kg/injection, schedule: Q04DX003 (ip), vehicle: Klucel (hydroxypropylcellulose) (HPC)) of the same compound?
Its T/C is 122 % of control.

How did the T/C (dose: 12.5 mg/kg/injection, schedule: Q04DX003 (ip), vehicle: Klucel (hydroxypropylcellulose) (HPC)) turn out when `O=C1C=CC(=C(c2ccccc2)c2ccccc2)C=C1` was run?
The T/C was 95 % of control.

And the T/C (dose: 25.0 mg/kg/injection, schedule: Q04DX003 (ip), vehicle: Klucel (hydroxypropylcellulose) (HPC))?
Its T/C is 100 % of control.

And the T/C (dose: 50.0 mg/kg/injection, schedule: Q04DX003 (ip), vehicle: Klucel (hydroxypropylcellulose) (HPC))?
Its T/C is 91 % of control.

How did the T/C (dose: 100.0 mg/kg/injection, schedule: Q01DX009 (ip), vehicle: saline) turn out when `O=S(=O)(O)c1ccc(O)cc1` was run?
Its T/C is 92 % of control.

What about the T/C (dose: 100.0 mg/kg/injection, schedule: Q04DX003 (ip), vehicle: saline) of the same compound?
Its T/C is 105 % of control.

And the T/C (dose: 200.0 mg/kg/injection, schedule: Q01DX009 (ip), vehicle: saline)?
Its T/C is 88 % of control.

And the T/C (dose: 200.0 mg/kg/injection, schedule: Q04DX003 (ip), vehicle: saline)?
Its T/C is 115 % of control.

What about the T/C (dose: 400.0 mg/kg/injection, schedule: Q04DX003 (ip), vehicle: saline) of the same compound?
The T/C was 110 % of control.

`CCO/C=C1\SC(=S)N(Cc2ccccc2)C1=O` was tested. Which T/C (dose: 12.5 mg/kg/injection, schedule: Q01DX009 (ip), vehicle: other) did it give?
The T/C was 86 % of control.

And the T/C (dose: 25.0 mg/kg/injection, schedule: Q01DX009 (ip), vehicle: other)?
Its T/C is 109 % of control.

What about the T/C (dose: 44.0 mg/kg/injection, schedule: Q04DX003 (ip), vehicle: other) of the same compound?
Its T/C is 118 % of control.

What about the T/C (dose: 44.0 mg/kg/injection, schedule: Q04DX003 (ip), vehicle: saline + alcohol) of the same compound?
Its T/C is 100 % of control.

And the T/C (dose: 44.0 mg/kg/injection, schedule: Q04DX003 (ip), vehicle: saline with Tween-80)?
The T/C was 118 % of control.

What about the T/C (dose: 100.0 mg/kg/injection, schedule: Q04DX003 (ip), vehicle: saline + alcohol) of the same compound?
Its T/C is 104 % of control.

And the T/C (dose: 150.0 mg/kg/injection, schedule: Q04DX003 (ip), vehicle: other)?
The T/C was 154 % of control.

And the T/C (dose: 150.0 mg/kg/injection, schedule: Q04DX003 (ip), vehicle: saline + alcohol)?
Its T/C is 95 % of control.

What about the T/C (dose: 150.0 mg/kg/injection, schedule: Q04DX003 (ip), vehicle: saline with Tween-80) of the same compound?
Its T/C is 116 % of control.

Which results are given for `CCCCCC(CN(C)C)C(=O)/C=C/c1ccc(Cl)c(Cl)c1` (configuration not stated)?
T/C (dose: 2.75 mg/kg/injection, schedule: Q01DX009 (ip), vehicle: saline): 110 % of control; T/C (dose: 4.12 mg/kg/injection, schedule: Q01DX009 (ip), vehicle: saline): 105 % of control; T/C (dose: 50.0 mg/kg/injection, schedule: Q01DX001 (ip), vehicle: saline): 100 % of control

Which results are given for `COc1ccc2c(ccc[n+]2C)c1`?
T/C (dose: 7.2 mg/kg/injection, schedule: Q01DX009 (ip), vehicle: saline): 104 % of control; T/C (dose: 9.37 mg/kg/injection, schedule: Q04DX003 (ip), vehicle: saline): 91 % of control; T/C (dose: 10.0 mg/kg/injection, schedule: Q01DX009 (ip), vehicle: saline): 104 % of control; T/C (dose: 18.75 mg/kg/injection, schedule: Q04DX003 (ip), vehicle: saline): 91 % of control; T/C (dose: 35.0 mg/kg/injection, schedule: Q04DX003 (ip), vehicle: saline): 122 % of control; T/C (dose: 36.7 mg/kg/injection, schedule: Q04DX003 (ip), vehicle: saline): 110 % of control; T/C (dose: 37.5 mg/kg/injection, schedule: Q01DX009 (ip), vehicle: saline): 150 % of control and 155 % of control; T/C (dose: 37.5 mg/kg/injection, schedule: Q04DX003 (ip), vehicle: saline): 104 % of control; T/C (dose: 55.0 mg/kg/injection, schedule: Q04DX003 (ip), vehicle: saline): 154 % of control

What does the source list for `CCOC(=O)CCc1nc(C(=O)OCC)c(C)c(=O)[nH]1`?
T/C [2]: 107 % of control; T/C [1]: 103 % of control; T/C [3]: 100 % of control
